ChEMBL document CHEMBL6103591, “Discovery of naphthoquinone-furo-piperidone derivatives as dual targeting agents of STAT3 and NQO1 for the treatment of breast cancer” (Eur J Med Chem, 2025)

Tests used:
MDA-MB-231 [1] = assay: Antitumor activity against human MDA-MB-231 cells xenografted in female BALB/c nude mouse assessed as tumor growth inhibition at 5 mg/kg, ip administered daily and measured every 2 days for 21 days relative to control; type: functional; conditions: MDA-MB-231, 504 h, time 21 day, read-out: TGI
[2] = Toxicity in female BALB/c nude mouse xenografted with human MDA-MB-231 cells assessed as morphological change in lung at 5 to 10 mg/kg, ip administered daily and measured every 2 days for 21 days by hematoxylin and eosin staining based analysis; type: organism-based; conditions: in vivo, 504 h, dose 5-10 mg/kg, time 21 day
[3] = Toxicity in female BALB/c nude mouse xenografted with human MDA-MB-231 cells assessed as morphological change in heart at 5 to 10 mg/kg, ip administered daily and measured every 2 days for 21 days by hematoxylin and eosin staining based analysis; type: organism-based; conditions: in vivo, 504 h, dose 5-10 mg/kg, time 21 day
[4] = Toxicity in female BALB/c nude mouse xenografted with human MDA-MB-231 cells assessed as morphological change in kidney at 5 to 10 mg/kg, ip administered daily and measured every 2 days for 21 days by hematoxylin and eosin staining based analysis; type: organism-based; conditions: in vivo, 504 h, dose 5-10 mg/kg, time 21 day
[5] = Toxicity in female BALB/c nude mouse xenografted with human MDA-MB-231 cells assessed as morphological change in spleen at 5 to 10 mg/kg, ip administered daily and measured every 2 days for 21 days by hematoxylin and eosin staining based analysis; type: organism-based; conditions: in vivo, 504 h, dose 5-10 mg/kg, time 21 day
[6] = Toxicity in female BALB/c nude mouse xenografted with human MDA-MB-231 cells assessed as body weight loss at 5 to 10 mg/kg, ip administered daily and measured every 2 days for 21 days; type: organism-based; conditions: in vivo, 504 h, dose 5-10 mg/kg, time 21 day
MDA-MB-231 [7] = assay: Antitumor activity against human MDA-MB-231 cells xenografted in female BALB/c nude mouse assessed as tumor growth inhibition at 10 mg/kg, ip administered daily and measured every 2 days for 21 days relative to control; type: functional; conditions: MDA-MB-231, 504 h, time 21 day, read-out: TGI
[8] = Toxicity in female BALB/c nude mouse xenografted with human MDA-MB-231 cells assessed as morphological change in liver at 5 to 10 mg/kg, ip administered daily and measured every 2 days for 21 days by hematoxylin and eosin staining based analysis; type: organism-based; conditions: in vivo, 504 h, dose 5-10 mg/kg, time 21 day

Q: With Cl.O=C1C(=O)c2c(oc3c2CCN(CCN2CCCCC2)C3=O)-c2ccccc21 as the compound, how does the inhibition in vivo at 5 mg/kg (MDA-MB-231 [1]) read?
A: 28.9%

Q: And the Activity [2]?
A: Non-toxic

Q: And the Activity [3]?
A: Non-toxic

Q: What about the Activity [4] of the same compound?
A: Non-toxic

Q: And the Activity [5]?
A: Non-toxic

Q: And the Activity [6]?
A: Non-toxic

Q: What about the inhibition in vivo at 10 mg/kg (MDA-MB-231 [7]) of the same compound?
A: 56.8%

Q: What about the Activity [8] of the same compound?
A: Non-toxic
